Experimental data published in US12180226B2, “Spirotricycle RIPK1 inhibitors and methods of uses thereof” (Merck Sharp & Dohme LLC, priority 2021, dated 2024).

Target: RIPK1 (recombinant GST-RIPK1 kinase domain, residues 1-327) (Homo sapiens (Human), UniProt Q13546)
Assay: RIPK1-ADP-Glo Enzymatic Assay
Type: biochemical
Settings: ADP-Glo; 25 nM GST-RIPK1, 300 μM ATP; assay lower limit ~25 nM; read-out: RIPK1 V0 Ec50
Summary of the method: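 GST-tagged kinase domain (residues 1-327, Sf21-expressed), 25 nM, pre-incubated 30 min with compound at ambient temperature, then reacted 150 min with 300 μM ATP and 3 μM dephosphorylated MBP in HEPES pH 7.3 buffer. ADP measured by ADP-Glo luminescence; EC50 from ten-point titration (top 100000 nM), four-parameter fit.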

Sequence of RIPK1 (recombinant GST-RIPK1 kinase domain, residues 1-327) (Q13546 1-327): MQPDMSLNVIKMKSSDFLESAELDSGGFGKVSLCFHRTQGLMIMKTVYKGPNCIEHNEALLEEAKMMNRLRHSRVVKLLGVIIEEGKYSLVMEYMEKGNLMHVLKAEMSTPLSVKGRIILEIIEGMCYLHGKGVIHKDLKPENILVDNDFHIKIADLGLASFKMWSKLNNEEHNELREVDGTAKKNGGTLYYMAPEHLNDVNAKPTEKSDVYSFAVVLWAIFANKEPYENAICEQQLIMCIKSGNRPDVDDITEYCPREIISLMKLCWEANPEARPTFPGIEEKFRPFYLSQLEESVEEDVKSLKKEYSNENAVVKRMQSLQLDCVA

`O=C1N2[C@@H](CC[C@H]2c2cccc(F)c2)OC12CCN(c1ccnc3c(F)cnn13)CC2` [Example 4.129, (5′S,7a′R)-5′-(3-fluorophenyl)-1-(3-fluoropyrazolo[1,5-a]pyrimidin-7-yl)tetrahydro-3′H-spiro[piperidine-4,2′-pyrrolo[2,1-b] [1,3]oxazol]-3′-one] and `O=C1N2[C@@H](CC[C@H]2c2cc(F)cc(F)c2)OC12CCN(c1ccc(Br)c3ncnn13)CC2` [Example 13.7, (5′S,7a′R)-1-(8-bromo-[1,2,4]triazolo[1,5-a]pyridin-5-yl)-5′-(3,5-difluorophenyl)tetrahydro-3′H-spiro[piperidine-4,2′-pyrrolo[2,1-b]oxazol]-3′-one] cannot be ordered by EC50: under 25 nM for the first, under 25 nM for the second.

First: CC1CN(c2cccc3ncnn23)CCC12O[C@@H]1CC[C@@H](c3cc(F)cc(F)c3)N1C2=O (stereo partly drawn) [Example 4.265, (5′S,7a′R)-5′-(3,5-difluorophenyl)-3-methyl-1-([1,2,4]triazolo[1,5-a]pyridin-5-yl)tetrahydro-3′H-spiro[piperidine-4,2′-pyrrolo[2,1-b] [1,3]oxazol]-3′-one]
Second: COc1cc(N2CCC3(CC2)O[C@@H]2CC[C@@H](c4cc(F)cc(F)c4)N2C3=O)ncn1 [Example 4.11, (5′S,7a′R)-5′-(3,5-difluorophenyl)-1-(6-methoxypyrimidin-4-yl)tetrahydro-3′H-spiro[piperidine-4,2′-pyrrolo[2,1-b] [1,3]oxazol]-3′-one]
The EC50 of the first is higher: 28.4 nM for the first, under 25 nM for the second. The second is the more potent here.

Going from `O=C(c1cc(F)ccc1F)N1CC2(C1)O[C@@H]1CC[C@@H](c3ccccc3F)N1C2=O` [Example 1.18, (5′S,7a′R)-1-(2,5-difluorobenzoyl)-5′-(2-fluorophenyl)tetrahydro-3′H-spiro[azetidine-3,2′-pyrrolo[2,1-b]oxazol]-3′-one] to `O=C1N2[C@@H](CC[C@H]2c2ccccc2F)OC12CN(CCc1ccccc1)C2` [Example 22.8, (5′S,7a′R)-5′-(2-fluorophenyl)-1-(2-phenylethyl)tetrahydro-3′H-spiro[azetidine-3,2′-pyrrolo[2,1-b][1,3]oxazol]-3′-one], the EC50 rises from 39 nM to 348 nM (8.9-fold).

Going from `COc1cc(N2CCC3(CC2)O[C@@H]2CC[C@@H](c4cccc(F)c4)N2C3=O)ncn1` [Example 4.51, (5′S,7a′R)-5′-(3-fluorophenyl)-1-(6-methoxypyrimidin-4-yl)tetrahydro-3′H-spiro[piperidine-4,2′-pyrrolo[2,1-b] [1,3]oxazol]-3′-one] to `COc1cccc([C@@H]2CC[C@H]3OC4(CCN(c5cc(C#N)ncn5)CC4)C(=O)N32)c1` [Example 20.3, 6-[(5′S,7a′R)-5′-(3-methoxyphenyl)-3′-oxotetrahydro-1H,3′H-spiro[piperidine-4,2′-pyrrolo[2,1-b][1,3]oxazol]-1-yl]pyrimidine-4-carbonitrile], the EC50 rises from 41.2 nM to 394 nM (9.6-fold).

Compared with `O=C(c1cc2ccccc2o1)N1CCC2(CC1)O[C@@H]1CC[C@@H](c3cc(F)cc(F)c3)N1C2=O` [Example 5.69], `N#Cc1cccc(C(=O)N2CCC3(CC2)O[C@@H]2CC[C@@H](c4cc(F)cc(F)c4)N2C3=O)c1` [Example 5.17, 3-((5′S,7a′R)-5′-(3,5-difluorophenyl)-3′-oxo-tetrahydro-3′H-spiro [piperidine-4,2′-pyrrolo-[2,1-b]oxazole]-1-carbon-yl)benzonitrile] is 1.8-fold lower in EC50: 45.3 nM for the first, 25 nM for the second. The second is the more potent here.

Going from `N#Cc1cnc(N2CCC3(CC2)O[C@@H]2CC[C@@H](c4ccccc4F)N2C3=O)nc1` [Example 4.106, 2-((5′S,7a′R)-5′-(2-fluorophenyl)-3′-oxotetrahydro-3′H-spiro[piperidine-4,2′-pyrrolo[2,1-b]oxazol]-1-yl)pyrimidine-5-carbonitrile] to `N#Cc1cccc(N2CCC3(CC2)O[C@@H]2CC[C@@H](c4ccccc4)N2C3=O)n1` [Example 4.29, 6-[(5′S,7a′R)-3′-oxo-5′-phenyltetrahydro-1H,3′H-spiro[piperidine-4,2′-pyrrolo[2,1-b] [1,3]oxazol]-1-yl]pyridine-2-carbonitrile], the EC50 falls from 30.5 nM to under 25 nM. The second is the more potent here.

Compared with `O=C(c1noc2c1CCCC2)N1CCC2(CC1)O[C@@H]1CC[C@@H](c3cc(F)cc(F)c3)N1C2=O` [Example 6.17, (5′S,7a′R)-5′-(3,5-difluorophenyl)-1-(4,5,6,7-tetrahydro-1,2-benoxazole-3-carbonyl)tetrahydro-3′H-spiro[piperidine-4,2′-pyrrolo[2,1-b] [1,3]oxazol]-3′-one], `Cc1onc(C(=O)N2CCC3(CC2)O[C@@H]2CC[C@@H](c4cc(F)cc(F)c4)N2C3=O)c1C` [Example 6.57, (5′S,7a′R)-5′-(3,5-difluorophenyl)-1-(4,5-dimethyl-1,2-oxazole-3-carbonyl) tetrahydro-3′H-spiro [piperidine-4,2′-pyrrolo[2,1-b][1,3]-oxazol]-3′-one] is 2.5-fold higher in EC50: 173 nM for the first, 426 nM for the second.

`O=C(c1ccc(Br)cn1)N1CCC2(CC1)O[C@@H]1CC[C@@H](c3cc(F)cc(F)c3)N1C2=O` [Example 6.100, (5′S,7a′R)-1-(5-bromo-pyridine-2-carbonyl)-5′-(3,5-difluorophen-yl)tetrahydro-3′H-spiro[piperidine-4,2′-pyrrolo[2,1-b][1,3]-oxazol]-3′-one] and `O=C(c1cnsc1)N1CCC2(CC1)O[C@@H]1CC[C@@H](c3cc(F)cc(F)c3)N1C2=O` [Example 5.51, (5′S,7a′R)-5′-(3,5-difluoro-phenyl)-1-(isothiazole-4-carbonyl)tetrahydro-3′H-spiro[piperidine-4,2′-pyrrolo[2,1-b]oxazol]-3′-one] are within 1.5-fold of each other in EC50: 66.7 nM for the first, 48.3 nM for the second.

Compared with `COc1cncc(C(=O)N2CCC3(CC2)O[C@@H]2CC[C@@H](c4cc(F)cc(F)c4)N2C3=O)n1` [Example 6.41, (5′S,7a′R)-5′-(3,5-difluorophenyl)-1-(6-methoxypyrazine-2-carbonyl)tetrahydro-3′H-spiro[piperidine-4,2′-pyrrolo[2,1-b] [1,3]-oxazol]-3′-one], `Cn1cccc1C(=O)N1CCC2(CC1)O[C@@H]1CC[C@@H](c3cc(F)cc(F)c3)N1C2=O` [Example 5.48, (5′S,7a′R)-5′-(3,5-difluoro-phenyl)-1-(1-methyl-1H-pyrrole-2-carbonyl)tetra-hydro-3′H-spiro[piperidine-4,2′-pyrrolo[2,1-b]oxazol]-3′-one] is 3.1-fold lower in EC50: 131 nM for the first, 42.2 nM for the second. The second is the more potent here.

Compared with `COc1cnc(N2CCC3(CC2)O[C@@H]2CC[C@@H](c4ccccc4)N2C3=O)n2ncnc12` [Example 19.6, (5′S,7a′R)-1-(8-methoxy[1,2,4]triazolo [1,5-c]pyrimidin-5-yl)-5′-phenyltetrahydro-3′H-spiro[piperidine-4,2′-pyrrolo[2,1-b][1,3]oxazol]-3′-one], `CC(F)(F)c1ccnc(N2CCC3(CC2)O[C@@H]2CC[C@@H](c4ccccc4)N2C3=O)c1` [Example 4.262, (5′S,7a′R)-1-[4-(1,1-difluoroethyl)pyridin-2-yl]-5′-phenyltetrahydro-3′H-spiro[piperidine-4,2′-pyrrolo[2,1-b] [1,3]oxazol]-3′-one] is 5.6-fold higher in EC50: 45.4 nM for the first, 256 nM for the second. The first is the more potent here.

Compared with `O=C(c1cccc2ccnn12)N1CCC2(CC1)O[C@@H]1CC[C@@H](c3cc(F)cc(F)c3)N1C2=O` [Example 6.27, (5′S,7a′R)-5′-(3,5-difluorophenyl)-1-(pyrazolo[1,5-a]pyridine-7-carbonyl) tetrahydro-3′H-spiro [piperidine-4,2′-pyrrolo[2,1-b][1,3]oxazol]-3′-one], `N#Cc1ccc(C(=O)N2CCC3(CC2)O[C@@H]2CC[C@@H](c4cc(F)cc(F)c4)N2C3=O)cc1` [Example 5.21, 4-((5′S,7a′R)-5′-(3,5-difluorophenyl)-3′-oxo-tetrahydro-3′H-spiro [piperidine-4,2′-pyrrolo-[2,1-b]oxazole]-1-carbon-yl)benzonitrile] is 7.2-fold higher in EC50: 47.6 nM for the first, 342 nM for the second.

First: O=C1N2[C@H](OC13CCN(c1ccnc4c(F)cnn14)CC3)[C@@H](O)C[C@H]2c1ccccc1 [Example 4.271, (5′S,7′S,7a′R)-1-(3-fluoropyrazolo[1,5-a]pyrimidin-7-yl)-7′-hydroxy-5′-phenyltetrahydro-3′H-spiro[piperidine-4,2′-pyrrolo[2,1-b] [1,3]oxazol]-3′-one]
Second: O=C1N2[C@H](OC13CCN(c1ccnc4ccnn14)CC3)[C@H](O)C[C@H]2c1ccccc1 [Example 4.248, (5′S,7′R,7a′R)-7′-hydroxy-5′-phenyl-1-(pyrazolo[1,5-a]pyrimidin-7-yl)tetrahydro-3′H-spiro[piperidine-4,2′-pyrrolo[2,1-b] [1,3]oxazol]-3′-one]
The EC50 of the first is lower: under 25 nM for the first, 33.7 nM for the second. The first is the more potent here.

Going from `Cc1ncc([C@@H]2CC[C@H]3OC4(CCN(c5ccnc6ccnn56)CC4)C(=O)N32)cc1F` [Example 4.89, (5′S,7a′R)-5′-(5-fluoro-6-methylpyridin-3-yl)-1-(pyrazolo[1,5-a]pyrimidin-7-yl)tetrahydro-3′H-spiro[piperidine-4,2′-pyrrolo[2,1-b]oxazol]-3′-one] to `Cc1cc(C)cc(C(=O)N2CCC3(CC2)O[C@@H]2CC[C@@H](c4cccc(F)c4)N2C3=O)c1` [Example 6.132, (5′S,7a′R)-1-(3,5-dimethylbenzene-1-carbonyl)-5′-(3-fluoro-phenyl)tetrahydro-3′H-spiro[piperidine-4,2′-pyrrolo[2,1-b][1,3]oxazol]-3′-one], the EC50 rises from 29.4 nM to 71.7 nM (2.4-fold). The first is the more potent here.

First: N#Cc1cc([C@@H]2CC[C@H]3OC4(CCN(C(=O)c5ccccc5)CC4)C(=O)N32)ccc1F [Example 17.4, 5-((5′S,7a′R)-1-benzoyl-3′-oxotetrahydro-3′H-spiro[piperidine-4,2′-pyrrolo[2,1-b]oxazol]-5′-yl)-2-fluorobenzonitrile]
Second: O=C1N2[C@@H](CC[C@H]2c2ccccc2)OC12CCN(c1ccc(-c3nc4ccccc4[nH]3)cn1)CC2 [Example 4.166, (5′S,7a′R)-1-[5-(1H-benzimidazol-2-yl)pyridin-2-yl]-5′-phenyltetrahydro-3′H-spiro[piperidine-4,2′-pyrrolo[2,1-b] [1,3]oxazol]-3′-one]
The EC50 of the first is 3.5-fold higher: 196 nM for the first, 56.4 nM for the second.
